The text below walks through data of US9212182B2, “Bicyclic sulfonamide compounds as sodium channel inhibitors” (AMGEN INC., priority 2013, dated 2015).

The structures appear in SMILES notation. Like-named read-outs stand apart in the source and are kept apart here.

For the assay, the target named is Nav 1.7 (Homo sapiens (Human), UniProt Q15858). The assay can be described thus: in-vitro Nav 1.7 PX (IC50). It is filed as cell-based.
Sequence of Nav 1.7 (Q15858 whole entry): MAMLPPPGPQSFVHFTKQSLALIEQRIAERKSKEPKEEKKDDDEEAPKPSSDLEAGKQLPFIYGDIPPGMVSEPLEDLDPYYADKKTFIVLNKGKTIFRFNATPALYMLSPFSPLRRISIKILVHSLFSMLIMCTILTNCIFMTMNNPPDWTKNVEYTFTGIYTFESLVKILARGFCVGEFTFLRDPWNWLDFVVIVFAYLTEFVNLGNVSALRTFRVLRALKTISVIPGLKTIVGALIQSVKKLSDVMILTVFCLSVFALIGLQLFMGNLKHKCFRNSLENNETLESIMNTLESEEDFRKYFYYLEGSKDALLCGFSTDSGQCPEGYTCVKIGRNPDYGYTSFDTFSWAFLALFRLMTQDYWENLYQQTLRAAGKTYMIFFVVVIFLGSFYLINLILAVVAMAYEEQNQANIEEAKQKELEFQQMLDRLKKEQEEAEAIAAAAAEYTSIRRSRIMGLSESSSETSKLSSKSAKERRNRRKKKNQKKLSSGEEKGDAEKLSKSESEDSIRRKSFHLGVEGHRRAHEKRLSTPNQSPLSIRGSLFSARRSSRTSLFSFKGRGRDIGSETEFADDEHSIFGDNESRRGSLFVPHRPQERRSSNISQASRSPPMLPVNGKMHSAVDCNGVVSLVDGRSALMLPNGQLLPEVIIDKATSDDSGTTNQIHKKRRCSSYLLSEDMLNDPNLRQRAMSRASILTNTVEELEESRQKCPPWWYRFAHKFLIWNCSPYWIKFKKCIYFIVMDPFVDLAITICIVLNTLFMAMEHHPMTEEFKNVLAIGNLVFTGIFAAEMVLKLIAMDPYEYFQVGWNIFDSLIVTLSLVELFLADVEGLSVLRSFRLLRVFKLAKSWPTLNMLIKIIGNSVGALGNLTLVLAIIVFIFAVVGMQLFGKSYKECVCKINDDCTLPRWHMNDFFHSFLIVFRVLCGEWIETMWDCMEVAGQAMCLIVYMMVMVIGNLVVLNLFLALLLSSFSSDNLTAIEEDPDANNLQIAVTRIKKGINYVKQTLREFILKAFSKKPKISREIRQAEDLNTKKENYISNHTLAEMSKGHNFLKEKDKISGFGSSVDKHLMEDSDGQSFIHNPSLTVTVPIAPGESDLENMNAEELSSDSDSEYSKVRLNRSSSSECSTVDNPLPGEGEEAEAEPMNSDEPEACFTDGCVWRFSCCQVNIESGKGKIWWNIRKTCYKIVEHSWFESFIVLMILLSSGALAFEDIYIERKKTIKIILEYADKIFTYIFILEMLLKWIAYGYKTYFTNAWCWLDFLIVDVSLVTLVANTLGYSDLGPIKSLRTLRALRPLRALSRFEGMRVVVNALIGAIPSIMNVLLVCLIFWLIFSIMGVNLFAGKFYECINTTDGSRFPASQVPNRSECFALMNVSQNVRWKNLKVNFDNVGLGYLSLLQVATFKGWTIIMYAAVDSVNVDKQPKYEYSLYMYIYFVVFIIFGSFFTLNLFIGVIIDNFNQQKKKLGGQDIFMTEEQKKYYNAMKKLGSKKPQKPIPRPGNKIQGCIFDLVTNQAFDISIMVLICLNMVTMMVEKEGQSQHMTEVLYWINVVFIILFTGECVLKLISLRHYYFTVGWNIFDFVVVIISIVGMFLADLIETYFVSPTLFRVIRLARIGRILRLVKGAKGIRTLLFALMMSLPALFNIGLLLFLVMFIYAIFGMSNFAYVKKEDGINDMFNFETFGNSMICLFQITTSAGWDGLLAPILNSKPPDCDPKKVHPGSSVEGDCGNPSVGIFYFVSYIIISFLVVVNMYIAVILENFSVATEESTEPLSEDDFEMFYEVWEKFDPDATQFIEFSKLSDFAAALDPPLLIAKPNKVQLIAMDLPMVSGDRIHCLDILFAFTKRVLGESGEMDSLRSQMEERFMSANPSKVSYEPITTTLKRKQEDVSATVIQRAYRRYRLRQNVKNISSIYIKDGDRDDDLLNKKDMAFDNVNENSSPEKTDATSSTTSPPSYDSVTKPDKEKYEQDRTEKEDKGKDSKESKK

As a reminder, the IC50 is the concentration that gives 50% inhibition. Low values mean greater potency, high ones weaker potency. `COc1cc(-c2cccc(C)c2OC)c(F)cc1-n1c(=O)ccc2cc(S(=O)(=O)Nc3ccon3)ccc21` [Example 792, 1-(2-fluoro-2′,5-dimethoxy-3′-methyl-4-biphenylyl)-N-3-isoxazolyl-2-oxo-1,2-dihydro-6-quinolinesulfonamide]: the midpoint of inhibition (in-vitro Nav 1.7 PX data), the IC50, lay at 38 nM. On the same count and under the same terms, then `COc1cc(-c2cccc(C(F)(F)F)c2)ccc1-n1c(=O)ccc2cc(S(=O)(=O)Nc3ncccn3)c(F)cc21` [Example 982, 7-fluoro-1-(3-methoxy-3′-(trifluoromethyl)-4-biphenylyl)-2-oxo-N-2-pyrimidinyl-1,2-dihydro-6-quinolinesulfonamide], with 38 nM. `COc1cc(-c2cc(C)cc(Cl)c2)c(F)cc1-n1c(=O)ccc2cc(S(=O)(=O)Nc3ccon3)ccc21` (atropisomer, axis not shown; (P)) [Example 506, (P)-1-(3′-chloro-2-fluoro-5-methoxy-5′-methyl-4-biphenylyl)-N-3-isoxazolyl-2-oxo-1,2-dihydro-6-quinolinesulfonamide] came in with an IC50 (in-vitro PatchXpress (PX)) of 8 nM. Under “in-vitro Nav 1.7 PX data”, `COc1nc(OC2CCCC2)c(Cl)cc1-n1c(=O)ccc2cc(S(=O)(=O)Nc3ccon3)ccc21` [Example 825, 1-(5-chloro-6-(cyclopentyloxy)-2-methoxy-3-pyridinyl)-N-3-isoxazolyl-2-oxo-1,2-dihydro-6-quinolinesulfonamide] had an IC50 of 330 nM. Turning to `COc1cc(-c2cccc(F)c2)c(C)cc1-n1c(=O)ccc2cc(S(=O)(=O)Nc3ccon3)ccc21` (atropisomer, axis not shown; (P)) [Example 427, (P)-1-(3′-fluoro-5-methoxy-2-methyl-4-biphenylyl)-N-3-isoxazolyl-2-oxo-1,2-dihydro-6-quinolinesulfonamide], the IC50 is 25 nM. `COc1cc(-c2ccc(C)c(C)c2)c(F)cc1-n1c(=O)ccc2cc(S(=O)(=O)Nc3ccon3)ccc21` [Example 704, 1-(2-fluoro-5-methoxy-3′,4′-dimethyl-4-biphenylyl)-N-3-isoxazolyl-2-oxo-1,2-dihydro-6-quinolinesulfonamide] returned a half-maximal inhibitory concentration (IC50) (in-vitro Nav 1.7 PX data) of 16 nM.

For the setting “in-vitro Nav 1.7 PX data”, `COc1cc(-c2ccc(-n3c(=O)ccc4cc(S(=O)(=O)Nc5ccon5)ccc43)c(OC)c2)ccc1F` [Example 1017, 1-(4′-fluoro-3,3′-dimethoxy-4-biphenylyl)-N-3-isoxazolyl-2-oxo-1,2-dihydro-6-quinolinesulfonamide] returned an IC50 of 80 nM.

For `COc1cc(Cl)cc(-c2ccc(-n3c(=O)ccc4cc(S(=O)(=O)Nc5ncccn5)ccc43)c(OC)c2)c1` [Example 923, 1-(3′-chloro-3,5′-dimethoxy-4-biphenylyl)-2-oxo-N-2-pyrimidinyl-1,2-dihydro-6-quinolinesulfonamide], half-maximal inhibition (in-vitro Nav 1.7 PX data) (IC50) was put at 12 nM. On the same count and under the same terms, then `COc1cc(-c2ccc(Cl)cc2)c(F)cc1-n1c(=O)ccc2cc(S(=O)(=O)Nc3ccnc(C)n3)ccc21` [Example 751, 1-(4′-chloro-2-fluoro-5-methoxy-4-biphenylyl)-N-(2-methyl-4-pyrimidinyl)-2-oxo-1,2-dihydro-6-quinolinesulfonamide], with 67 nM. `COc1nc(NCC2(C)CCCC2)c(Cl)cc1-n1c(=O)ccc2cc(S(=O)(=O)Nc3ccon3)ccc21` [Example 1236, 1-(5-chloro-2-methoxy-6-(((1-methylcyclopentyl)methyl)amino)-3-pyridinyl)-N-3-isoxazolyl-2-oxo-1,2-dihydro-6-quinolinesulfonamide] gave an IC50 of 507 nM. This counts as sub-micromolar. With `COc1cc(-c2cccc(C(F)(F)F)c2)ccc1-n1c(=O)ccc2cc(S(=O)(=O)Nc3ncon3)ccc21` [Example 919, 1-(3-methoxy-3′-(trifluoromethyl)-4-biphenylyl)-N-1,2,4-oxadiazol-3-yl-2-oxo-1,2-dihydro-6-quinolinesulfonamide], the midpoint of inhibition (in-vitro Nav 1.7 PX data), the IC50, lay at 22 nM.

For `COc1nc(-c2ccc(F)cc2)c(Cl)cc1-n1c(=O)ccc2cc(S(=O)(=O)Nc3ccon3)ccc21` (atropisomer, axis not shown; (P)) [Example 1203, (P)-1-(5-chloro-6-(4-fluorophenyl)-2-methoxy-3-pyridinyl)-N-3-isoxazolyl-2-oxo-1,2-dihydro-6-quinolinesulfonamide], the half-maximal inhibitory concentration (IC50) is 187 nM. That is a sub-micromolar value. With `COc1ccc(-c2ccc(C(F)(F)F)cc2)cc1-n1c(=O)ccc2cc(S(=O)(=O)Nc3ccon3)ccc21` [Example 856, N-3-isoxazolyl-1-(4-methoxy-4′-(trifluoromethyl)-3-biphenylyl)-2-oxo-1,2-dihydro-6-quinolinesulfonamide], the IC50 (in-vitro Nav 1.7 PX data) came to 35 nM. Still for that read-out and setting: then `COc1cc(-c2ccc(Cl)c(C)c2)c(F)cc1-n1c(=O)ccc2cc(S(=O)(=O)Nc3cccnn3)ccc21` (atropisomer, axis not shown; (P)) [Example 695, (P)-1-(4′-chloro-2-fluoro-5-methoxy-3′-methyl-4-biphenylyl)-2-oxo-N-3-pyridazinyl-1,2-dihydro-6-quinolinesulfonamide], with 12 nM. `COc1cc(Br)ccc1-n1c(=O)ccc2cc(S(=O)(=O)Nc3cccnn3)ccc21` [Example 1050, 1-(4-bromo-2-methoxyphenyl)-2-oxo-N-3-pyridazinyl-1,2-dihydro-6-quinolinesulfonamide] showed a 50% inhibitory concentration (IC50) (in-vitro Nav 1.7 PX data (PatchXpress)) of 1430 nM. Where the note is “in-vitro Nav 1.7 PX data”, `COc1cc(-c2ccc(Cl)c(C)c2)c(F)cc1-n1c(=O)ccc2cc(S(=O)(=O)Nc3ccc(F)cn3)ccc21` (atropisomer, axis not shown; (P)) [Example 693, (P)-1-(4′-chloro-2-fluoro-5-methoxy-3′-methyl-4-biphenylyl)-N-(5-fluoro-2-pyridinyl)-2-oxo-1,2-dihydro-6-quinolinesulfonamide] showed an IC50 of 186 nM. `COc1cc(-c2ccc(C)c(F)c2)ccc1-n1c(=O)ccc2cc(S(=O)(=O)Nc3ccon3)ccc21` (atropisomer, axis not shown; (P)) [Example 576, (P)-1-(3′-fluoro-3-methoxy-4′-methyl-4-biphenylyl)-N-3-isoxazolyl-2-oxo-1,2-dihydro-6-quinolinesulfonamide] registered an IC50 of 40 nM.

As for `COc1cc(-c2ccc(C(F)(F)F)nc2)c(F)cc1-n1c(=O)ccc2cc(S(=O)(=O)Nc3ccon3)ccc21` [Example 761, 1-(5-fluoro-2-methoxy-4-(6-(trifluoromethyl)-3-pyridinyl)phenyl)-N-3-isoxazolyl-2-oxo-1,2-dihydro-6-quinolinesulfonamide], half-maximal inhibition (in-vitro Nav 1.7 PX data) (IC50) was put at 120 nM. This counts as sub-micromolar. Still for that read-out and setting: then `COc1cc(-c2cccc(C(F)(F)F)c2)ccc1-n1c(=O)ccc2cc(S(=O)(=O)Nc3ccnc(C)n3)ccc21` [Example 947, 1-(3-methoxy-3′-(trifluoromethyl)-4-biphenylyl)-N-(2-methyl-4-pyrimidinyl)-2-oxo-1,2-dihydro-6-quinolinesulfonamide], with 51 nM. Under “in-vitro PatchXpress (PX)”, `COc1cc(-c2cccc(C(F)(F)F)c2)ccc1-n1c(=O)ccc2cc(S(=O)(=O)Nc3cccnn3)ccc21` (atropisomer, axis not shown; (P)) [Example 369, (P)-1-(3-methoxy-3′-(trifluoromethyl)-4-biphenylyl)-2-oxo-N-3-pyridazinyl-1,2-dihydro-6-quinolinesulfonamide] had an IC50 of 16 nM.

On to `COc1cc(-c2ccc(C)c(F)c2)c(F)cc1-n1c(=O)ccc2cc(S(=O)(=O)Nc3ncc(F)cn3)ccc21` [Example 1127, 1-(2,3′-difluoro-5-methoxy-4′-methyl-4-biphenylyl)-N-(5-fluoro-2-pyrimidinyl)-2-oxo-1,2-dihydro-6-quinolinesulfonamide], for which, where the note is “in-vitro Nav 1.7 PX data”, half-maximal inhibition (IC50) was put at 34 nM. Molecule `COc1cc(Cl)cc(-c2ccc(-n3c(=O)ccc4cc(S(=O)(=O)Nc5ncc(F)cn5)ccc43)c(OC)c2)c1` [Example 927, 1-(3′-chloro-3,5′-dimethoxy-4-biphenylyl)-N-(5-fluoro-2-pyrimidinyl)-2-oxo-1,2-dihydro-6-quinolinesulfonamide] returned a concentration for half-maximal inhibition (IC50) (in-vitro Nav 1.7 PX data) of 15 nM. This IC50 is about 2.3-fold lower than that of the molecule before. In turn, `COc1cc(-c2ccc(F)c(Cl)c2)ccc1-n1c(=O)ccc2cc(S(=O)(=O)Nc3ccon3)ccc21` (atropisomer, axis not shown; (M)) [Example 577, (M)-1-(3′-chloro-4′-fluoro-3-methoxy-4-biphenylyl)-N-3-isoxazolyl-2-oxo-1,2-dihydro-6-quinolinesulfonamide] returned an IC50 of 7140 nM. For the molecule `COc1cc(-c2ccc(Cl)cn2)c(F)cc1-n1c(=O)ccc2cc(S(=O)(=O)Nc3ccon3)ccc21` [Example 800, 1-(4-(5-chloro-2-pyridinyl)-5-fluoro-2-methoxyphenyl)-N-3-isoxazolyl-2-oxo-1,2-dihydro-6-quinolinesulfonamide], the IC50 (in-vitro Nav 1.7 PX data) came to 253 nM.

Turning to `COc1cc(-c2cccc(Cl)c2)c(Cl)cc1-n1c(=O)ccc2cc(S(=O)(=O)Nc3ccon3)ccc21` (atropisomer, axis not shown; (P)) [Example 459, (P)-1-(2,3′-dichloro-5-methoxy-[1,1′-biphenyl]-4-yl)-N-(isoxazol-3-yl)-2-oxo-1,2-dihydroquinoline-6-sulfonamide], the IC50 amounted to 12 nM. `COc1cc(-c2ccc(C)c(F)c2)c(F)cc1-n1c(=O)ccc2cc(S(=O)(=O)Nc3ncco3)ccc21` [Example 1125, 1-(2,3′-difluoro-5-methoxy-4′-methyl-4-biphenylyl)-N-1,3-oxazol-2-yl-2-oxo-1,2-dihydro-6-quinolinesulfonamide]: half-maximal inhibition (in-vitro Nav 1.7 PX data) (IC50) was put at 81 nM.

Turning to `COc1cc(-c2cc(C)cc(C)c2)ccc1-n1c(=O)ccc2cc(S(=O)(=O)Nc3ccon3)ccc21` [Example 1016, N-3-isoxazolyl-1-(3-methoxy-3′,5′-dimethyl-4-biphenylyl)-2-oxo-1,2-dihydro-6-quinolinesulfonamide], the IC50 (in-vitro Nav 1.7 PX data) was found to be 11 nM.

`COc1cc(C#CC2CCCC2)ccc1-n1c(=O)ccc2cc(S(=O)(=O)Nc3cccnn3)ccc21` (atropisomer, axis not shown; (P)) [Example 1239, (P)-1-(4-(cyclopentylethynyl)-2-methoxyphenyl)-2-oxo-N-3-pyridazinyl-1,2-dihydro-6-quinolinesulfonamide] returned an IC50 of 113 nM. Still for that read-out and setting: then `Cc1cc(-c2cccc(F)c2)c(F)cc1-n1c(=O)ccc2cc(S(=O)(=O)Nc3ccon3)ccc21` (atropisomer, axis not shown; (P)) [Example 390, (P)-1-(2,3′-difluoro-5-methyl-[1,1′-biphenyl]-4-yl)-N-(isoxazol-3-yl)-2-oxo-1,2-dihydroquinoline-6-sulfonamide], with 100 nM.
